# Values quoted from earlier work as cited in patent publication US20250171403A1 (Synthon B.V., priority 2022, published 2025).
# Conditions: qualitative, background statement
smiles,measurement,value
"COc1cc2nccc(Oc3ccc(NC(=O)C4(C(=O)Nc5ccc(F)cc5)CC4)cc3)c2cc1OC [Cabozantinib, N-[4-(6,7-Dimethoxyquinolin-4-yloxy)phenyl]-N′-(4-fluorophenyl)cyclopropane-1,1-dicarboxamide]","solubility (prior art, general statement)",poorly soluble
